Reference: the supplement of paper PMC10307832

Key:
Assay in all cases: relative viability (nuclei count vs DMSO), 5 days (fraction); higher = more cells survive
[1] = compound: Cc1ccc2nc(NCCN)c3ncc(C)n3c2c1 + CC(=O)Nc1cccc(-n2c(=O)n(C3CC3)c(=O)c3c(Nc4ccc(I)cc4F)n(C)c(=O)c(C)c32)c1 [Trametinib] (partner 0.02 µM)
How it was run: (§1)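 For relative viability, nuclei counts in treated wells were divided by those in vehicle wells. Lung cancer cell lines had been pin-tool dosed in 1536-well plates the day after seeding and cultured for 5 days, then fixed and stained in one step (final 0.05% Triton X-100, 1% formaldehyde, 1 ug/ml Hoechst) and imaged at 4×. Doses were one drug alone or a fixed anchor-drug dose plus five library-drug doses (not always all listed) in √10 steps, and values are duplicate-plate medians.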

[2] = compound: Cc1ccc2nc(NCCN)c3ncc(C)n3c2c1 + C[C@]1(O)C[C@@H](c2nc(-c3ccc4ccc(-c5ccccc5)nc4c3)c3c(N)nccn32)C1 [Linsitinib] (partner 1 µM)
How it was run: as §1

[3] = compound: Cc1ccc2nc(NCCN)c3ncc(C)n3c2c1 + CC(=O)c1c(C)c2cnc(Nc3ccc(N4CCNCC4)cn3)nc2n(C2CCCC2)c1=O [Palbociclib] (partner 0.5 µM)
How it was run: as §1

[4] = compound: Cc1ccc2nc(NCCN)c3ncc(C)n3c2c1 + CC1(C)CCC(c2ccc(Cl)cc2)=C(CN2CCN(c3ccc(C(=O)NS(=O)(=O)c4ccc(N[C@H](CCN5CCOCC5)CSc5ccccc5)c(S(=O)(=O)C(F)(F)F)c4)cc3)CC2)C1 [Navitoclax] (partner 0.5 µM)
How it was run: as §1

| Cell Line | relative viability ([1]; first compound 0.04 µM) | relative viability ([1]; first compound 0.1265 µM) | relative viability ([1]; first compound 0.4 µM) | relative viability ([1]; first compound 1.265 µM) | relative viability ([1]; first compound 4 µM) | relative viability ([2]; first compound 0.04 µM) | relative viability ([2]; first compound 0.1265 µM) | relative viability ([2]; first compound 0.4 µM) | relative viability ([2]; first compound 1.265 µM) | relative viability ([2]; first compound 4 µM) | relative viability ([3]; first compound 0.04 µM) | relative viability ([3]; first compound 0.1265 µM) | relative viability ([3]; first compound 0.4 µM) | relative viability ([3]; first compound 1.265 µM) | relative viability ([3]; first compound 4 µM) | relative viability ([4]; first compound 0.04 µM) | relative viability ([4]; first compound 0.1265 µM) | relative viability ([4]; first compound 0.4 µM) | relative viability ([4]; first compound 1.265 µM) | relative viability ([4]; first compound 4 µM) |
| --- | --- | --- | --- | --- | --- | --- | --- | --- | --- | --- | --- | --- | --- | --- | --- | --- | --- | --- | --- | --- |
| NCI-H838 | 0.561 | 0.507 | 0.45 | 0.507 | 0.612 | 1.01 | 0.956 | 0.964 | 0.995 | 0.97 | 0.216 | 0.233 | 0.233 | 0.223 | 0.264 | 1.23 | 1.05 | 1.16 | 1.15 | 1.12 |
| COR-L 105 | 0.423 | 0.506 | 0.478 | 0.407 | 0.414 | 1.11 | 0.964 | 0.873 | 1.1 | 0.845 | 0.374 | 0.414 | 0.43 | 0.4 | 0.438 | 0.809 | 0.802 | 0.802 | 0.899 | 0.698 |
| NCI-H2405 | 0.648 | 0.629 | 0.674 | 0.589 | 0.581 | 0.942 | 0.855 | 0.928 | 1.03 | 0.763 | 0.557 | 0.511 | 0.518 | 0.522 | 0.508 | 0.849 | 0.905 | 0.936 | 0.718 | 0.725 |
| NCI-H1395 | 0.977 | 0.983 | 0.989 | 0.828 | 0.878 | 1 | 0.955 | 1.02 | 1.07 | 0.955 | 0.647 | 0.613 | 0.597 | 0.546 | 0.557 | 1.27 | 1.13 | 1.31 | 1 | 1.1 |
| NCI-H1915 | 0.304 | 0.297 | 0.28 | 0.296 | 0.294 | 1.1 |  | 1.16 | 1.1 | 1 | 0.512 | 0.51 | 0.39 | 0.552 | 0.488 | 0.793 |  | 0.781 | 0.774 | 0.766 |
| CAL-12T | 0.352 | 0.323 | 0.361 | 0.357 | 0.271 | 0.835 | 0.873 | 0.853 | 0.877 | 0.731 | 0.499 | 0.47 | 0.39 | 0.376 | 0.48 | 1.26 | 1.14 | 1.25 | 1.33 | 1.17 |
| LXF-289 | 0.669 | 0.629 | 0.696 | 0.645 | 0.663 | 0.981 | 0.949 | 0.967 | 0.975 | 1.01 | 0.605 | 0.648 | 0.604 | 0.638 | 0.556 | 0.946 | 0.909 | 0.936 | 0.922 | 0.952 |
| NCI-H460 | 0.165 | 0.146 | 0.171 | 0.197 | 0.0969 | 0.759 | 0.735 | 0.751 | 0.692 | 0.642 | 0.114 | 0.152 | 0.147 | 0.204 | 0.0833 | 1.27 | 1.08 | 1.1 | 1.22 | 1.06 |
